Legend:
[1] = type: physicochemical; conditions: for Dye Concentration in Acetone at RT: 72 h
Procedure: Examples 3-4 and Comparative Example A were prepared by placing 60-100 mg of each of the compounds of Examples 1-2 and 6-methoxy-14H-anthra(2,1,9-mna)thioxanthene-14-one (described by […] et al.) in a vial with 5.0 ml acetone. […] Each vial was hand shaken and the solution was filtered using a 0.45 micron polytetrafluoroethylene (PTFE) filter commercially available from VWR Scientific Products, West Chester, Pa. under the trade designation “Acrodisc 13CR PTFE”. The amount of fluorescent dye in the saturated acetone solution was determined by measuring the major dye absorption band at 535 nm using a UV-Vis Spectrophotometer commercially available from Shimadzu Scientific Instruments, Inc., Columbia, Md. under the trade designation “Shimadzu model UV-2401PC”. Dye concentrations were calculated by measuring the absorbance of the saturated acetone solution, and then diluting that solution until absorbance of the resulting solution was below 3. The dyes were assumed to have equal absorbance per mole. Using the dilution and an absorbance coefficient of 16,100 A/mol/L (coefficient obtained in acetone for the dye of Example 2) and assuming a Beer's Law relationship, the concentration of dye in each saturated solution was calculated and is set out in TABLE I.

SMILES	Dye Concentration in Acetone at RT [1]	solubility in acetone relative to Comparative Example A [1]	melting point
COc1cc2c3ccccc3c(=O)c3ccc4c5ccccc5sc1c4c32 [A, 6-methoxy-14H-anthra(2,1,9-mna)thioxanthene-14-one, reference compound]	0.06 mg/mL	–	–
CCCCC(CC)COc1cc2c3ccccc3c(=O)c3ccc4c5ccccc5sc1c4c32 (stereo not drawn) [Example 1, 6-[(2-Ethylhexyl)oxy]-14H-anthra[2,1,9-mna]thioxanthene-14-one]	0.96 mg/mL	improved solubility	175 to 177 °C
CC(C)CC(CC(C)C)Oc1cc2c3ccccc3c(=O)c3ccc4c5ccccc5sc1c4c32 [Example 2, 6-(1-Isobutyl-3-methylbutoxy)-14H-anthra[2,1,9-mna]thioxanthene-14-one]	2.98 mg/mL	improved solubility	–

— US6531613B1 (3M Innovative Properties Company, priority 2001, dated 2003)
